These are literature values, as cited in PMC8243326, “Data-Driven Ensemble Docking to Map Molecular Interactions of Steroid Analogs with Hepatic Organic Anion Transporting Polypeptides” (Journal of Chemical Information and Modeling, 2021).

As a reminder, the pIC50 is the negative decadic logarithm of the IC50, by convention in mol/L.

The target in one series is T1, OATP2B1 (Homo sapiens, UniProt O94956).
T1 sequence (O94956 1-709): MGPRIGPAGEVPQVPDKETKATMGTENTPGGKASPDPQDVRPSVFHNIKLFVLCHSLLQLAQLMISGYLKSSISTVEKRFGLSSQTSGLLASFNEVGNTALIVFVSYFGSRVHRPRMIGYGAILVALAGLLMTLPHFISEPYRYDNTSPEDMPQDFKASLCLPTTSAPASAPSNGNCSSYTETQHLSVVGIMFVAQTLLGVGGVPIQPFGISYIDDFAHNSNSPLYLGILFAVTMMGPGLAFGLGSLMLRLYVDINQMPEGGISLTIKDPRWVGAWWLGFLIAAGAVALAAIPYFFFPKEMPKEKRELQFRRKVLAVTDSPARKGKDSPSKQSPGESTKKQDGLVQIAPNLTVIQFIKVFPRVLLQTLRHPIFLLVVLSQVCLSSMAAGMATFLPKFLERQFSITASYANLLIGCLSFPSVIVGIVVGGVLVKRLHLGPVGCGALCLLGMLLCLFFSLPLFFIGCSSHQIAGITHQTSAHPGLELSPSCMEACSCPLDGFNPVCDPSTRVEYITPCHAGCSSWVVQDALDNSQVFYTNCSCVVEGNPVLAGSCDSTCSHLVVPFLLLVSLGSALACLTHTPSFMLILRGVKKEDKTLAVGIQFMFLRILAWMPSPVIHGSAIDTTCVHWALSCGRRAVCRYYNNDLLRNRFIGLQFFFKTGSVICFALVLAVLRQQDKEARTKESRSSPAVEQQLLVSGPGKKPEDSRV
Further details: method as in earlier work. The conditions noted are these: Figure S14; public data sources; cited from earlier work.

A further series has as its target T2, OATP1B1 (Homo sapiens, UniProt Q9Y6L6).
T2 sequence (Q9Y6L6 1-691): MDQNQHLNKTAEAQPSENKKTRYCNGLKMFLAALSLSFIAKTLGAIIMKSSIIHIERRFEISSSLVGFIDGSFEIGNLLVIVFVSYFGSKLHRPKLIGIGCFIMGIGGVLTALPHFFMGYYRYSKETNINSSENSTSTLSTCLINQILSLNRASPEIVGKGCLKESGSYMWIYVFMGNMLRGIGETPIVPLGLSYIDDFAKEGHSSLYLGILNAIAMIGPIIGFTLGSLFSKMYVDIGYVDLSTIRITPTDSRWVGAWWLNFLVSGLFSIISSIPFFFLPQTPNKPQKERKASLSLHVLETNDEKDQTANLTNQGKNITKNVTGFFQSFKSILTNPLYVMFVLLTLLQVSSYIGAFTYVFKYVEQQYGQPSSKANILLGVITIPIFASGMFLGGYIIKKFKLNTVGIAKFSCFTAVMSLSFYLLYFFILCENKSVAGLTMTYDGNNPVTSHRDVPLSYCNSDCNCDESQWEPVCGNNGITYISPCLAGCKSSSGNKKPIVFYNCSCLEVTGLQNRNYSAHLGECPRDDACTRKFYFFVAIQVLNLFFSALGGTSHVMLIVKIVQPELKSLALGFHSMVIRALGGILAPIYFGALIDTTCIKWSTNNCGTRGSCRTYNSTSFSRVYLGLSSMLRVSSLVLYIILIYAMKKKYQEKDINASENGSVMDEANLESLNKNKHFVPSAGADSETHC
The conditions noted are these: cited from earlier work; for median bioactivity value: OATP1B1, public data sources.

The target of a further series is T3, OATP1B3 (Homo sapiens, UniProt Q9NPD5).
T3 sequence (Q9NPD5 1-702): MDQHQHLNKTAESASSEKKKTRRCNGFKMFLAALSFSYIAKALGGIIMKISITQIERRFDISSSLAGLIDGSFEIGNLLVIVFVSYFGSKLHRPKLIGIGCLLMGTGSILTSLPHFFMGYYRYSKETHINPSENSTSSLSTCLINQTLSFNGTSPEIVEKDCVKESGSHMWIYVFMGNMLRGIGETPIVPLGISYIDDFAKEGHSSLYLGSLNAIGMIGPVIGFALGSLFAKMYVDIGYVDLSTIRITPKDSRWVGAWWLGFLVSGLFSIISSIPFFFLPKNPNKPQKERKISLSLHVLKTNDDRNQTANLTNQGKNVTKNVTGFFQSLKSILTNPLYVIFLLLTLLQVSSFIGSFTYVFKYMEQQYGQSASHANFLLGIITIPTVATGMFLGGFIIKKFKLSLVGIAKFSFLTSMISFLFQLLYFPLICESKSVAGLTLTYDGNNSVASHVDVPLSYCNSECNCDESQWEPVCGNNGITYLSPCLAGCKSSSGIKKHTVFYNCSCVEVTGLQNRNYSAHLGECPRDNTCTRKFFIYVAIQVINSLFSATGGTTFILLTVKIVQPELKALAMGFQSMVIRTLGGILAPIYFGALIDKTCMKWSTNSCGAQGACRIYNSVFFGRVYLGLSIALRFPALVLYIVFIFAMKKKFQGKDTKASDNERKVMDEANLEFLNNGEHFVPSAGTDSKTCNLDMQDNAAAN
Further details: expressed in transfected cells; host or cells: A431 cells. As to conditions: public data sources; cited from earlier work.

pIC50: −log10 of the molar value.

`C[C@]12CC[C@@H]3c4ccc(OS(=O)(=O)O)cc4CC[C@H]3[C@@H]1CCC2=O` [E-3-S, estrone-3-sulfate]: at OATP2B1, the pIC50 was 5.00. The “median bioactivity value” at OATP1B1 was 0.450 µM. The “transporter selectivity (in words)” value at OATP1B1 (OATP1B1 vs OATP1B3, known from literature) is reported as “OATP1B1 selective”.
With `COC(=O)CC[C@@H](C)[C@H]1CC[C@H]2[C@@H]3[C@H](O)C[C@@H]4C[C@H](O)CC[C@]4(C)[C@H]3C[C@H](O)[C@]12C` [cholic acid methyl ester], the “median bioactivity value” is 0.13 µM on OATP1B3 and 0.20 µM on OATP1B1.
For `C[C@H](CCC(=O)O)[C@H]1CC[C@H]2[C@@H]3CC[C@@H]4C[C@H](O)CC[C@]4(C)[C@H]3CC[C@]12C` [lithocholate], the “median bioactivity value” on OATP1B3 is 6.807 µM; at OATP1B1 it was 0.918 µM.
